# Laboratory results as given in a melting point compilation (Tetko et al.; mined from patent text by program, amines drawn as free bases though some values may be those of a salt).
row,SMILES,melting point [°C]
1,COc1cccc2c1CC(N(CCCc1c[nH]c3ccc(F)cc13)C1CC1)CO2 (stereo not drawn),115
2,CC(C)=CCc1cc(C2Oc3c(CC=C(C)C)c(O)cc(O)c3C(=O)C2O)ccc1O (stereo not drawn),95 to 96
3,O=C(O)CCCc1ccc(S(=O)(=O)Nc2ccc(Cl)cc2)cn1,150 to 152
4,CCc1c(-c2ccc(O)cc2)c2cc(C(C)=O)c3cc(OC)cc1n32,245 to 246
5,CC(C)(C)NC(=O)[C@@H]1[C@@H](OC(=O)c2ccccc2)CCN1C(=O)OC(C)(C)C,132 to 134
6,Cc1cc(C)cc(SCC(=O)c2ccc(C(C)C)cc2)c1,46 to 47
7,CC(=O)NCCCc1c(Cl)ccc2occc12,82 to 83
8,Cc1ccc(OCCCCOc2ccc(C)cc2)cc1,104
9,CC(N)=CC(=O)CS(=O)(=O)N(C)Cc1ccccc1,115 to 118
10,O=C(NCCSCc1cccc(Cl)c1)c1ccccc1,75 to 76
11,Cc1oc(-c2ccccc2)nc1COc1ccc(CCCCCC2OC(=O)NC2=O)cc1 (stereo not drawn),120 to 121
12,O=C(Nc1ccccc1NS(=O)(=O)c1ccc([N+](=O)[O-])cc1)c1ccc(F)cc1,265 to 266
13,CCOC(=O)c1cn(C(=O)c2ccccc2)c2sc(-c3ccc(OC)cc3)c(C)c2c1=O,110 to 112
14,CCCN(CCC)C(=O)CCCN1CC[C@H](CNC(=O)c2ccc(N)cc2OC)[C@H](OC)C1 (relative stereo),133
15,N#CCCn1cccc1C1=CC(=O)c2ccccc2C1=O,127 to 128
16,O=[N+]([O-])c1sc(-n2cccc2)nc1Cl,138 to 139
17,COCc1nc(Cl)c(Oc2cc(OC)ccc2Cl)c(Cl)n1,105
18,CCCN(CCC)C(=O)Cn1c(-c2ccc(Cl)cc2)nc2cccnc21,156 to 157
19,O=Cc1cnn(-c2ccc(C(F)(F)F)cc2[N+](=O)[O-])c1Br,195 to 198
20,CCN1C(=O)C(C)(C)C(=O)N(C)c2cc(CN(CCn3cc(C)c4occc4c3=O)Cc3scnc3C)ccc21,134 to 136
21,Cn1c(C(=O)O)c(Oc2ccccc2N)c2ccccc21,193 to 194
22,Cc1cncnc1N1CCC(C(N)=O)CC1,182 to 184
23,C=C=COc1ccc2cc3ccccc3cc2c1,90.3 to 95.6
24,Cc1cccc(-n2nc(C)cc2-c2ccnc(NCCc3ccccc3)c2)c1,86 to 87
25,CCOC(=O)c1sc(-n2cnn(CC3CC3(F)F)c2=O)nc1C (stereo not drawn),146 to 148
26,Cc1ccc2nc(-c3ccc([N+](=O)[O-])cc3)c(CNC(=O)CC(C)C)n2c1,221 to 222

row,SMILES,melting point [°C]
1,Cc1ccc(S(=O)(=O)N[C@H](COS(=O)(=O)c2ccc(C)cc2)CC(C)C)cc1,99 to 101
2,CCOc1ccc2c(c1)C(C)(c1cc(N)ccc1Cl)C(=O)N2 (stereo not drawn),166
3,CC(=O)c1ccc(-c2ccccc2NC(=N)N(C)C)cc1,174 to 175
4,Cc1ccn(-c2ccc(C(=O)O)c(C(F)(F)F)c2)n1,192 to 194
5,CN1C(=O)C2(COc3cc4c(cc32)OCCO4)c2c(Oc3ccc(C(F)(F)F)cc3)cccc21 (stereo not drawn),198 to 201
6,Cc1ccc(N(Cc2ccc(N(C)C)cc2)C(=O)Nc2c(C(C)C)cccc2C(C)C)cc1,124 to 125
7,COc1ccc2c(c1)NC(=O)C(Cl)CC2 (stereo not drawn),162 to 163
8,CC1(C)[C@@H](CN2CCCC2)CC[C@@]1(C)NCC(=O)N1C[C@@H](F)C[C@H]1C#N,108 to 112
9,Cc1coc(-c2cccnc2)n1,40
10,CN1CCN(c2ccc(S(=O)(=O)c3ccccc3)c(N)c2)CC1,90 to 93
11,CNC(=C[N+](=O)[O-])NCCSCc1csc(CN2CCCC2)n1,119 to 120
12,CCN(CC)c1ccc(C2(c3ccc(N(C)C)cc3N(C)C)OC(=O)c3c(Cl)c(Cl)c(Cl)c(Cl)c32)c(C)c1 (stereo not drawn),236 to 238
13,OCc1c[nH]c(-c2ccc(O)cc2)n1,212 to 214
14,CSc1ccc2[nH]c(=O)oc(=O)c2c1,216 to 218
15,CCOC(=O)c1nn(-c2ccc(OC)cc2)c2c1CCN(c1ccc(I)cc1)C2=O,173 to 175
16,Cc1ccc2c(c1)sc1ncc(C(O)CCc3ccccc3)n12 (stereo not drawn),209 to 210
17,O=c1[nH]ncc2ccc(OCC3CO3)cc12 (stereo not drawn),164 to 166
18,Cc1[nH]n(Cc2cccc(C(N)=O)c2)c2nc(-c3ccncc3)nc(=O)c1-2,> 300
19,CCCCn1cnc2c1c(=O)n(CCCCC(C)=O)c(=O)n2C,79 to 80
20,NC(=O)c1cc(-c2c[nH]nc2-c2ccc(F)cc2)ccn1,230 to 231
21,O=C=Nc1ccc(NCc2ccc(F)c(Cl)c2)c(C(F)(F)F)c1,144 to 146
22,CCN(CC)c1ccc(NC(=S)N(C)N)cn1,147 to 149
23,CN1CCN(CCOc2ccc3nc(C#N)nc(NC4CCCC4)c3c2)CC1,110 to 112
24,Cc1cc(C)c2cnc(=O)n(CCN(C)C)c2n1,137 to 139
25,CNC(=NCCCSCc1[nH]cnc1C)NC#N,156 to 158
26,O=C(O)c1cnn2c(C(F)(F)F)cc(-c3ccc(Cl)cc3)nc12,238

row,SMILES,melting point [°C]
1,CC[C@H](CC[N+](=O)[O-])C(=O)N[C@@H](Cc1ccccc1)C(=O)OC,86.2 to 87.8
2,COC(=O)N1CCC[C@@H](OC)[C@@H]1CC(=O)Cn1cnc2ccc(C(F)(F)F)cc2c1=O (relative stereo),137 to 140
3,Fc1cccc(F)c1C1=NC(c2ccc(-c3ccc(SC(F)F)cc3)cc2)CO1 (stereo not drawn),75 to 77
4,C=CCc1c(-c2ccc(C#N)cc2)[nH]c2cc(C#N)ccc12,217 to 221
5,O=C(c1ccccc1Cl)c1cc(Cl)ccc1I,64 to 66
6,Cc1ccc2cc(-c3cccs3)ccc2n1,87
7,CCCc1c(OCCCOc2ccc3c(c2CCC)OC(CCC(=O)O)(C(=O)O)CC3=O)ccc(C(C)=O)c1O (stereo not drawn),76 to 79
8,Nc1ccc(-c2ccc(-c3nc(N)nc(N)n3)cc2)cc1,> 250
9,O=C1c2cc(Oc3ccc(F)cc3)ccc2CN1Cc1cccnc1,115 to 116
10,CCCNC(=O)N(Cc1ccc(C)cc1)NC(=O)OC(C)(C)C,87.8 to 89.4
11,COc1ccc2[nH]cc(C3=C(c4c[nH]c5ccccc45)C(=O)NC3=O)c2c1,280
12,Cc1cc(O)c(S(=O)(=O)Cc2ccc(F)cc2)c(=O)o1,180 to 182
13,CCN(CC)C(=O)c1cc(-c2ccccc2)c2ccccc2c1-c1ccccc1,111 to 113
14,COc1ccc(/C=C/C=C/C(=O)O)cc1,134 to 135
15,CCC(=O)N(CCc1ccccc1)C1CCc2c(cccc2NC(C)=O)C1 (stereo not drawn),143 to 145
16,O=C(O)CCCC(=O)Nc1ccc(N2CCN(C3(c4ccc(-c5ccccc5)cc4)C(=O)NC(=O)NC3=O)CC2)cc1,268 to 269
17,O=C1CCC(N2C(=O)c3cccc(CNC(=O)c4cnc5ccccc5n4)c3C2=O)C(=O)N1 (stereo not drawn),> 260
18,CN1CCN(c2ccnc3c(NC(=O)c4c(Cl)cccc4Cl)cc(C(F)(F)F)cc23)C1=O,> 285
19,CC(=O)C1CCC2C3CCC4CC(C)(O)CCC4(C)C3C(=O)CC12C (stereo not drawn),175
20,COC(=O)c1sc(-c2ccc(F)cc2)cc1-c1nnn(C)n1,132
21,COc1ccc(CCNC(=O)N(C)O)c(OC)c1,83 to 84
22,COC(=O)CCCCCOc1ccc(NC(=O)CCCCCO)cc1,73 to 75.5
23,NC1=Nc2ccccc2C2CCCC12F (stereo not drawn),174 to 176
24,C=CCN1CC(C)N(C(c2ccc(C(=O)N(CC)CC)cc2)c2cccc(O)c2)CC1C (stereo not drawn),170 to 171
25,Cc1cc(Cl)ccc1Oc1cccc(-c2ncccn2)n1,105
26,CCCC(Cn1ncnc1S)c1ccc(Cl)cc1Cl (stereo not drawn),103

row,SMILES,melting point [°C]
1,COC(=O)c1c(N)ncn1C1c2ccsc2CC1(C)C (stereo not drawn),161 to 162
2,Cc1cc(-c2cc(C(F)(F)F)nn2-c2ccc(S(C)(=O)=O)cc2)ccc1-c1ccco1,174 to 176
3,Nc1nc2ccccc2c2c1ncn2CCCCNC(=O)c1ccc(C(=O)c2ccccc2)cc1,159 to 161
4,CC(C)Cn1c(CNC(=O)C2CC2)nc2c(N)nc3ccccc3c21,215 to 216
5,CNc1ccc(/C=C/C(=O)O)cn1,227
6,CCOC(=O)CNc1ncccc1NC(=O)c1ccc(Cl)c(Cl)c1,137 to 138
7,CCOC1CCC(=O)N1S(=O)(=O)C=Cc1ccccc1 (stereo not drawn),61 to 63
8,Cn1c([N+](=O)[O-])cnc1-c1nnc2cccnn12,235 to 237
9,ONC(=S)CCc1ccc(F)cc1,115 to 116
10,COc1ccc(-c2n[nH]c(-c3cccc(C(=O)O)c3)n2)cc1,287 to 289
11,Cc1c(F)c(F)c(C(=O)N[C@@H](C)C(C)C)c(F)c1F,146 to 147
12,CCn1ncc(C(=O)c2ccc(S(C)(=O)=O)c(Cl)c2Cl)c1O,198 to 200
13,CCOC(=O)C=Cc1ccc(C)nc1,36 to 37
14,CCCCc1nc(=O)c2cc(-c3nnn[nH]3)ccc2[nH]1,225
15,CC(C)(C)c1cc(NC(=O)Nc2cccc(Oc3nc4ccccc4s3)c2)[nH]n1,110 to 111
16,OCc1cc2ccccc2cc1CO,161 to 162
17,CC(C)CCNCCCS(=O)(=O)O,220
18,CC1Cc2c(n(-c3ccc(Cl)c(Cl)c3)c3ncccc3c2=O)O1 (stereo not drawn),218 to 220
19,CNc1c([N+](=O)[O-])cc(C)cc1[N+](=O)[O-],132
20,O=C(N[C@@H]1CN(C2CCCCC2)C[C@H]1O)c1ccc(Cl)cc1 (relative stereo),158 to 160
21,OCC1C=CC(n2c(Br)nc3cc(Cl)c(Cl)cc32)C1 (stereo not drawn),126 to 128
22,COC(=O)c1ccccc1Sc1c(O)c2c(Cl)cc(Cl)cc2[nH]c1=O,158 to 160
23,Cn1cc(Oc2ccc(Cl)c(Cl)c2)c(=O)c(-c2cccc(C(F)(F)F)c2)c1,127 to 129
24,Cc1c(C)c(N2CCN(C(=O)OC(C)(C)C)CC2)c(C)c2c1OC(C)(C)C2N1CCCCC1 (stereo not drawn),167 to 168
25,O=C(O)CCC(=O)N1CCN(c2cc3c(cc2F)c(=O)c(C(=O)O)c2sccn23)CC1,331 to 334
